Here are results for three compounds from patent US20230346716A1, “TREATMENT OF SKIN DISORDERS WITH TOPICAL TAPINAROF COMPOSITIONS” (Sol-Gel Technologies Ltd., priority 2019, published 2023).

Data set [1] concerns experimentally induced psoriasis in normal human skin grafted onto beige-SCID mice. As to the kind of experiment: Study 1: histology of human skin xenograft psoriasis model in beige-SCID mice. In kind it is in vivo. To be noted: for Mean Epidermal Thickness: topical 14 days, grafts excised Day 56, mean ± SD. The text has this: (§1) The objective of this study was to determine the efficacy of tapinarof composition as described in Example 8 compared to the vehicle and Dexamethasone as shown below. The evaluation was based on histology analysis following application of the respective test formulations.
(§2) In this model, a psoriasis phenotype is induced in normal skin grafted onto beige-severe combined immunodeficient mice by intradermal injection of natural killer/T-cells derived from psoriatic patients (Gilhar et al., Psoriasis is mediated by a cutaneous defect triggered by activated immunocytes: induction of psoriasis by cells with natural killer receptors, J. Invest. Dermatol. 2002 August; 119(2):384-91).
(§3) In order to address the aim of the experiment, the psoriatic humanized mice were established Additionally, 10 psoriatic patients were recruited (six males and four females), ranging from 21 to 66 years (mean age 45 years). All patients had classic plaque psoriasis. Normal skin from one healthy volunteer was obtained for grafting.
(§4) The efficacy study has been conducted on female mice. The total duration of the experiment was 8 weeks, upon receiving of the human skin. Normal skin from healthy volunteers were obtained for grafting. Healthy human abdominal skin pieces with a width of 0.4 mm and surface area of 1.5×1.5 cm were provided. The skin sample was preserved in isotonic saline solution and transplanted within 6-12 hours after skin donation. In addition, blood samples were collected from psoriatic patients having classic plaque psoriasis and not undergoing any treatment. 20 mL blood samples were taken from both males and females psoriatic patients (from psoriatic patients having classic plaque psoriasis and not undergoing any treatment), and peripheral blood mononuclear cells (PBMC) were separated immediately after blood withdrawal.
(§5) Mice: Beige-severe combined immunodeficient mice C.B-17/IcrHsdscid-bg (beige-SCID) mice (weight ˜25 g) were included in this study. Mice were monitored twice a week for vital signs such as weight, food intake, coat, eyes, anal genital areas, discharge/soiling, behavior and criteria related to skin transplantation. Normal healthy human donor skin were transplanted onto the beige-SCID mice as previously described (See Keren A. et al., Novel nanosome delivery system combined with siRNA targeting the antimicrobial gene DFB4: a new approach for psoriasis management? ExpDermatol. 2014; 23:464-465; Bracke S. et a/., Targeted silencing of DEFB4 in a bioengineered skin-humanized mouse model for psoriasis: development of siRNA SECosome-based novel therapies. ExpDermatol. 2014; 23:199-201; Zaretsky M. et al., Directed evolution of a soluble human IL-17A receptor for the inhibition of psoriasis plaque formation in a mouse model. Chem Biol. 2013 21; 20:202-2; Gilhar A. et al., The beneficial effect of blocking Kv1.3 in the psoriasiform SCID mouse model. J Invest Dermatol. 2011; 131:118 124; Keren A. et al., Innate lymphoid cells 3 induce psoriasis in xenotransplanted healthy human skin. J Allergy Clin Immunol. 2018; 142:305-308.e6).
(§6) British Journal of Pharmacology 2010; 159:842-855).
(§7) Four weeks following the engraftment, each mouse was injected (intradermally) with 1×10^7 IL-2 enriched allogeneic PBMC's from psoriatic patients (1×10^7 cells injected/mouse). Cells from different psoriasis patients were equally distributed between treatment groups. Each patient was represented in each treatment group.
(§8) Fourteen days following cells injections, the mice were divided into treatment groups (Table 1, see below) and treated according to the timeline indicated below (see Scheme 1). Each transplant was equally topically treated (50 μg) by using a sterile spatula.
(§9) Dexamethasone (D2915, Sigma): was freshly prepared for each administration by dilution in saline to final concentration (50 mg/ml). […]

The test system is the same in data set [2]. As to the kind of experiment: Study 2: histology of human skin xenograft psoriasis model in beige-SCID mice. The format is in vivo. On the set-up: Mean Epidermal Thickness: unit not given here.
Source text: as §1, §2, §3, §4, §5, §6, §7, §8, §9

Data set [3] has as its system HBD2, Psoriasin (S100A7), CD4, CD8, IL-17, IL-22. As to the kind of experiment: Study 2: immunohistochemical markers for psoriasis in human xenotransplants. The format is in vivo, beige-SCID mice. The following applies: immunohistochemistry of xenotransplants.
For data set [4] the following is noted: as a single drug, psoriasis treatment; placebo 20.2%; cited from earlier work.
Where [5] appears, read: histological evaluation of human skin grafts.

Consider `C[C@@H]1C[C@H]2[C@@H]3CCC4=CC(=O)C=C[C@]4(C)[C@@]3(F)[C@@H](O)C[C@]2(C)[C@@]1(O)C(=O)CO` [Dexamethasone], for which, in data set [1], the “Partial Recovery (percent of grafts)” value was “(10%)”, the “Psoriatic Features (percent of grafts)” value is reported as “(0%)” and the “Mean Epidermal Thickness” value stood at 254±59 μm. In addition, in data set [1] (average ± SD), the “Baker score: Agranulosis - hypogranulosis” value is reported as 0.1 ± 0.3; the “Baker score: Blood vessels (tortuosity, elongation)” value was 0.05 ± 0.1; the “Baker score: Epidermal thickening (acanthosis)” value was 0.05 ± 0.1; the “Baker score: Hyperkeratosis” value is 0.05 ± 0.1. Further, in data set [1] (average ± SD), the “Baker score: Mononuclear cells infiltrate in the papillary dermis” value was 0.2 ± 0.6, the “Baker score: Munro micro abscess” value came to 0 ± 0, the “Baker score: Parakeratosis” value turned out to be 0.1 ± 0.3 and the “Baker score: Regular/abnormal elongation of rete ridges” value came to 0.1 ± 0.4. In addition, in data set [1] (average ± SD), the “Baker score: Suprapapillary epidermal thinning” value worked out at 0.05 ± 0.1 and the “Histological Scoring (Baker system), Total Score” value was found to be 0.7 ± 1.9. In data set [1] (setting [5]), the “Complete Recovery (grafts/total grafts)” value is reported as 9/10, the “Partial Recovery (grafts/total grafts)” value is given as 1/10 and the “Psoriatic Features (grafts/total grafts)” value is on record as 0/10. Besides, the “Mean Epidermal Thickness” value in data set [1] (listed as Dexamethasone 2 mg) was determined as 254 ± 59 μm. Moreover, the “Proliferation index (%)” value in data set [2] is 6 ± 2%. In addition, in data set [2] (average ± SD), the “Baker score: Agranulosis - hypogranulosis” value is on record as 0.1 ± 0.3; the “Baker score: Blood vessels (tortuosity, elongation)” value stood at 0.05 ± 0.1; the “Baker score: Epidermal thickening (acanthosis)” value came out at 0.05 ± 0.1; the “Baker score: Hyperkeratosis” value turned out to be 0 ± 0. In addition, in data set [2] (average ± SD), the “Baker score: Mononuclear cells infiltrate in the papillary dermis” value was 0 ± 0, the “Baker score: Munro micro abscess” value is 0 ± 0, the “Baker score: Parakeratosis” value amounted to 0 ± 0 and the “Baker score: Regular/abnormal elongation of rete ridges” value worked out at 0 ± 0. Moreover, in data set [2] (average ± SD), the “Baker score: Suprapapillary epidermal thinning” value is listed as 0.05 ± 0.1 and the “Histological Scoring (Baker system), Total Score” value amounted to 0.25 ± 0.8. In data set [2] (setting [5]), the “Complete Recovery (grafts/total grafts)” value is reported as 10/10, the “Partial Recovery (grafts/total grafts)” value is 0/10 and the “Psoriatic Features (grafts/total grafts)” value is recorded as 0/10. For the same compound, the Mean Epidermal Thickness in data set [2] (mean ± SD) turned out to be 193 ± 71. In data set [3], the CD4 came out at 0.5 ± 0.8 Cells per 0.66 mm^2; the CD8 was 0.6 ± 0.6 Cells per 0.66 mm^2; the “HBD2 (Integrated intensity, %)” value was 5.8 ± 0.9%; the IL-17 was 0.6 ± 0.9^ Cells per 0.66 mm^2. Besides, in data set [3], the IL-22 is 0.4 ± 0.8 Cells per 0.66 mm^2 and the “Psoriasin (S100A7) (Integrated intensity, %)” value was 6.6 ± 2.1%.

Take `CC(C)c1c(O)cc(/C=C/c2ccccc2)cc1O` [Tapinarof, 3,5-dihydroxy-4-isopropyl-trans-stilbene]: in data set [4], the adverse effects is given as 44.5%.

In the case of `C=C1/C(=C\C=C2/CCC[C@]3(C)[C@@H]([C@H](C)/C=C/[C@@H](O)C4CC4)CC[C@@H]23)C[C@@H](O)C[C@@H]1O` [calcipotriene], the adverse effects in data set [4] was 19.5%.
